Reference: patent US8440627B2, “G protein coupled receptor agonists and antagonists and methods of use” (Tufts Medical Center, Inc., priority 2004, dated 2013)
Ends that are not written are not given here.

Assays:
human platelets = test: Human platelet aggregation to thrombin; type: cell-based; conditions: thrombin greater than 11 nM; RWJ-56110 supplemented with PAR1-blocking antibody plus bivalirudin
[1] = test system: mice subjected to cecal ligation and puncture (CLP); test: Cecal ligation and puncture (CLP) sepsis: survival and body weight; type: in vivo
Protocol: The time point selected for treatment is at the induction of non-lethal sepsis by cecal ligation and puncture (CLP). After an initial dose of 2.5 mg/kg, 1 mg/kg pepducin (or vehicle) was injected into the mice subcutaneously each day for six days. *: Four mice out of the vehicle-treated group were sacrificed after six days; #: one mouse out of the groups treated with x1/2i1LCA10 pepducin was sacrificed on day 6, and all remaining surviving mice were sacrificed at 17 days. […] In the left panel, mice were treated with x1/2pal16, x1/2i1LCA10 or vehicle (20% DMSO) at the time point of CLP. In the right panel, mice were monitored for body weight every day.
There are only few reports where treatment of sepsis is sufficient, even after the onset of systemic inflammatory response syndrome. […] The time point selected for treatment is […] the induction of non-lethal sepsis by cecal ligation and puncture (CLP). […] In the right panel, mice were monitored for their body weight every day.
CLP was performed on 6 to 8 week old female CF-1 mice. […] In the left panel, mice were monitored for body weight every day. […]
The diagnosis of sepsis is often delayed and agents cannot be readily administered in a preventative mode, therefore pepducin treatment was withheld until 8 h after the CLP procedure. […]

[2] = test system: mice subjected to cecal ligation and puncture (CLP); test: CLP sepsis: bleeding time, D-dimer, platelet counts (DIC); type: in vivo
Protocol: Systemic inflammatory responses, the derangement of coagulation and fibrinolysis in DIC is mediated by several pro-inflammatory cytokines. Changes in bleeding time and increases in D-dimer, which is a product of excessive counter-regulatory fibrinolysis, is a hallmark of disseminated intravascular coagulation, leading to widespread deposition of fibrin in the circulation, contributing to multi organ failure and death in septic patients. […] A. Bleeding time was measured 24 h after CLP and immediate onset of treatment. […] B. D-dimer levels were measured 48 hours after CLP. As a surrogate marker of the amount of fibrin deposition, D-dimer was increased after CLP, to a higher extent in vehicle-treated mice than in CXCR2 pepducin-treated mice. C. Depicts the bleeding time of mice that were treated 8 h after CLP. D. Depicts the D-dimer levels of mice treated 8 h after CLP.
Therefore, systemic platelet activation was observed by measuring platelet counts and D-dimer levels, a marker of the increased fibrin production and subsequent fibrinolysis that occurs during DIC. […] When the CXCR1/2 pepducin treatment was delayed until 8 h after the CLP procedure, D-dimer levels were still reduced by 60-70%.

[3] = test system: mice subjected to cecal ligation and puncture (CLP); test: CLP sepsis: peripheral leukocyte count; type: in vivo; conditions: septic mice after CLP, once per day administration, blood 1-17 days
Description: It has been shown that SDF-1α and CXCR4 are involved in recruiting immature neutrophils from the bone marrow. High levels of CXCR4 expression and activation lead to homing of senescent neutrophils to the bone marrow, whereas chemokines acting on the CXCR2 receptors of neutrophils, i.e., KC, Gro-α or IL-8, lead to increased neutrophil mobilization. Blood was drawn 1, 3, 5, 7 and 17 days after CLP, and leukocytes were counted. An initial decrease in leukocytes in vehicle-treated mice was observed. […] This observation would match previous reports where either blocking of CXCR4 or stimulation of CXCR2 lead to neutrophilia in the peripheral blood of mice.
(§1) The long-term effects of the chemokine pepducins on peripheral leukocyte counts were assessed in healthy untreated mice. Pepducins were injected once per day sub-Q (2.5 mg/kg day 1, 1.0 mg/kg days 2-6) and circulating leukocyte levels measured over a one week period. […] The effects of the chemokine pepducins on peripheral leukocyte count were quite similar in septic mice subjected to cecal ligation and puncture (CLP).

healthy untreated mice = test: Peripheral leukocyte counts in healthy mice; type: in vivo; conditions: sub-Q once per day 2.5 mg/kg day 1, 1.0 mg/kg days 2-6, one week
Protocol: as §1

[4] = test system: mice subjected to cecal ligation and puncture (CLP); test: CLP sepsis: plasma liver enzyme levels (AST, ALT); type: in vivo; conditions: for plasma levels of ALT: 24 hours after CLP
Protocol: Since organ failure determines the outcome of patients in SIRS, liver function was investigated. Mice were sacrificed 24 hours after CLP and plasma levels of ALT, an enzyme that increases with loss of liver function, were measured. In sham-treated mice, i.e., abdominal incision without cecal ligation and puncture, no elevation of ALT was observed.
Liver failure is a common sequalae of severe sepsis. Treatment with the CXCR1/2 pepducins right after CLP reduced liver damage as evidenced by decreases of 52-87% in liver enzyme levels (AST, ALT) whereas the CXCR4 pepducin, x4pal-i1, had no effect. When CXCR1/2 pepducin treatment was initiated 8 h after CLP, the rise in plasma AST and ALT levels were halted by the 16 h time point and then dropped to near normal levels.

[5] = test system: mice subjected to cecal ligation and puncture (CLP); test: CLP sepsis: BAL neutrophils and lung histology; type: in vivo
Protocol: Adult respiratory […] syndrome (ARDS) results from excessive neutrophil infiltration into lungs and their activation, leading to fibrin deposition. Sepsis can cause ARDS, which has a high lethality. Panels A and B: Mice were sacrificed 24 hours after CLP and BAL was performed. Neutrophils were counted after staining with Giemsa, TNF was measured by ELISA. *p<0.02 vs. vehicle treated group. C Lung histology. Mice were sacrificed 48 hours after CLP.
Blockade of CXCR1/2 signaling with pepducins reversed several criteria of established SIRS in the septic mice. First, the effect of CXCR1/2 pepducins on systemic KC levels, the mouse IL-8 ortholog was examined. In untreated mice, KC levels rose over the 16 h period after CLP and remained elevated for at least 48 h. Following administration of the CXCR1/2 pepducins at the 8 h time point, the systemic KC levels rapidly dropped and remained low thereafter. Many of the untreated CLP mice became tachypnic and hypoxemic as early as 24 h and this correlated well with mortality. During sepsis, bacterial endotoxin stimulates lung epithelia to secrete IL-8 which recruits and activates leukocytes. The resulting neutrophil margination eventually leads to lung damage. The number of neutrophils in the bronchioalveolar lavage (BAL) fluid of untreated mice increased by 100-fold as early as 4 h after CLP and then rose to 200-300 fold after 8 h. […]

[6] = test system: thioglycollate peritonitis model in mice; test: Thioglycollate peritonitis model: leukocyte recruitment into the peritoneal cavity; type: in vivo
Protocol: Mice were injected with 1 mL of 3% thioglycollate i.p. Thioglycollate induces peritoneal macrophages to secret cytokines and leukocytes are then recruited into the peritoneal cavity. Pepducins were injected i.v. at the indicated doses. After 4 hours, cells were collected by peritoneal lavage, stained with Giemsa and counted under 40× magnification. N=60.
The effects of the CXCR1/2 and CXCR4 pepducins on neutrophil homeostasis under normal versus pro-inflammatory conditions in mice were evaluated. Leukocyte recruitment was first assessed in a thioglycollate peritonitis model.

CXCR4 [7] = target: T1, CXCR4 (Homo sapiens, UniProt P61073)
Target sequence in this assay (P61073 whole entry): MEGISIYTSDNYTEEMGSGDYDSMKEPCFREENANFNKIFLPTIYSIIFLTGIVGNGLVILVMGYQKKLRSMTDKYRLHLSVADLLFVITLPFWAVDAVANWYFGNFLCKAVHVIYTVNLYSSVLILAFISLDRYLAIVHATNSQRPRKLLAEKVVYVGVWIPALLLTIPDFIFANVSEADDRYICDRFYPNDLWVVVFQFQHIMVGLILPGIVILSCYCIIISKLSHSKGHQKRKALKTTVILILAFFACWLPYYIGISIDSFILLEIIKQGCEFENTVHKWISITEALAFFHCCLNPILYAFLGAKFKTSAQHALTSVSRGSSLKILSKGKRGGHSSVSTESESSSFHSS

CXCR4 [8] = target: CXCR4 (Mus musculus, UniProt P70658)
CXCR4 [9] = target: T1, CXCR4; conditions: CXCR4 co-expressed with CXCR1 or CXCR2
Target sequence in this assay (P61073 whole entry, species assumed): as the sequence (P61073 whole entry) above

[10] = test system: OVCAR-4 human ovarian cancer cells; test: Chemotaxis assay (20 h, 48 blindwell microchemotaxis chamber) toward NIH3T3 conditioned media, OVCAR-4; type: cell-based; conditions: OVCAR-4, NIH3T3 conditioned media, FIG. 27
Protocol: (§2) Conditioned media was prepared from NIH3T3. Chemotaxis assays (20 h) were performed using a 48 blindwell microchemotaxis chamber (Neuroprobe) equipped with […] pore nitrocellulose filters for OVCAR-4 human ovarian cancer cells and MDA-MB-231 human breast cancer cells. Data is expressed as chemotaxis index which is the ratio between the distance of migration toward NIH3T3 conditioned media over migration toward RPMI medium alone.

[11] = test system: MDA-MB-231 human breast cancer cells; test: Chemotaxis assay (20 h, 48 blindwell microchemotaxis chamber) toward NIH3T3 conditioned media, MDA-MB-231; type: cell-based; conditions: MDA-MB-231, NIH3T3 conditioned media, FIG. 27
Protocol: as §2

[12] = thioglycollate i.p., pepducin i.v., 4 hours

Sequence of CXCR4 (Mus musculus, UniProt P70658) (P70658 whole entry): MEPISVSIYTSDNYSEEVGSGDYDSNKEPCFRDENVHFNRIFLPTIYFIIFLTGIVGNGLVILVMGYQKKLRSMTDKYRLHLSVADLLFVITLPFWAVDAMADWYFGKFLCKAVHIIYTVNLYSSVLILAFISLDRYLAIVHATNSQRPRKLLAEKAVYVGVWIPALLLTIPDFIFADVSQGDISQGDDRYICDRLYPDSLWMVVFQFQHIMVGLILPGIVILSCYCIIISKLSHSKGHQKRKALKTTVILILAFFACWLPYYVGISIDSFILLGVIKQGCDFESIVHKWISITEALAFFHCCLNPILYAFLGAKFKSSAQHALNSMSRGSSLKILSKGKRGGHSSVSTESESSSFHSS

Compound: NCC[C@H](NC(=O)[C@H](Cc1ccc(F)c(F)c1)NC(=O)Nc1ccc2c(CN3CCCC3)cn(Cc3c(Cl)cccc3Cl)c2c1)C(=O)NCc1ccccc1 [RWJ-56110]
- thrombin activation of PAR4-dependent aggregation (human platelets): regained full activation

Compound: CXCR1/CXCR2 i1 loop pepducin, sequence YSRVGRSVTD, lithocholate lipid modification (SEQ ID NO 20, 23) (also: lithocholate lipid modification) [x1/2i1LCA10]
- sepsis-induced mortality ([1]; pepducin immediately after CLP, 2.5 mg/kg then 1 mg/kg until day 6): highly significant decrease
- bleeding time ([2]; 24 h after CLP, immediate onset of treatment): normal bleeding times
- D-dimer levels ([2]; 48 hours after CLP): significant reductions
- peripheral blood leukocyte levels [3]: remained in the normal range
- peripheral blood leukocyte levels ([3]; listed as x1/2LCA-i1): within the normal range
- peripheral leukocyte count (healthy untreated mice): neither x1/2pal-i3 nor x1/2LCA-i1 altered the leukocyte count
- plasma levels of ALT [4]: an increase was observed but it was significantly less compared to vehicle treated mice
- lung fibrin deposition (histology) ([5]; lungs harvested at 48 h after CLP): significant protection against fibrin deposition
- neutrophils in bronchioalveolar lavage (BAL) fluid ([5]; treatment at 8 h after CLP): rapid drop
- IC50, inhibition of transmigration of neutrophils into the peritoneal cavity [6, 12]: 0.15 mg/kg
- transmigration of neutrophils into the peritoneal cavity [6, 12]: completely inhibited
- migration of leukocytes towards SDF-1α (CXCR4 [7]): does not inhibit migration
- migration of leukocytes towards SDF-1α (CXCR4 [8]): does not inhibit migration
- inhibition of CXCR4 (CXCR4 [9]): does not inhibit CXCR4

Compound: CXCR4 i1 loop pepducin, CXCR4 antagonist; x4i1pal12 is MGYQKKLRSMTD with palmitate (SEQ ID NO 25) (also: palmitate) [x4pal-i1]
- chemotactic migration of ovarian cancer cells [10]: block chemotactic migration
- chemotactic migration of breast cancer cells [11]: block chemotactic migration
- effect on survival ([1]; CLP mice): no effect on survival
- peripheral blood leukocyte levels [3]: accelerated leukocytosis on day 1 and leukopenia by day 7
- peripheral blood leukocyte levels ([3]; listed as x4i1pal12): increased immediately, but decreased 5 days after CLP to very low levels
- peripheral leukocyte count (healthy untreated mice): caused a leukocytosis
- plasma levels of ALT [4]: an increase in ALT
- effect on liver damage, liver enzyme levels (AST, ALT) ([4]; treatment right after CLP): no effect
- transmigration of neutrophils into the peritoneal cavity [6, 12]: substantial increase
- EC50, increase in peritoneal neutrophils ([6]; thioglycollate peritonitis): ~0.1 mg/kg

Compound: x1/2pal-i1: I1-loop pepducin based on CXCR1/2; x1/2i1pal12 is ILYSRVGRSVTD with palmitate (SEQ ID NO 18, 21) (also: palmitate)
- chemotactic migration of ovarian cancer cells [10]: block chemotactic migration
- chemotactic migration of breast cancer cells [11]: block chemotactic migration
